Experimental data from publication PMC8198792, “Prediction of Anticancer Peptides with High Efficacy and Low Toxicity by Hybrid Model Based on 3D Structure of Peptides” (International Journal of Molecular Sciences, 2021).
Bridge positions count the residues as written; N and C are the ends. Peptide text beside a SMILES is read from it.

What was measured:
[1] = system: lung cancer cell line (A549); type: cell-based, human
Excerpt: (§1) Five peptides were randomly selected from the candidate ACPs and synthesized by Changzhou Kanglong Biotech Ltd (Changzhou, China). using 9-fuorenylmethoxy carbonyl (FMOC) solid phase synthesis technology. The synthetic peptide was identified by mass spectrometry (MS), and the purity >95% by high performance liquid chromatography (HPLC). Human breast cancer cell line (MCF7), lung cancer cell line (A549), cervical cancer cell line (HeLa), colorectal adenocarcinoma cell line (LoVo) and human embryonic kidney cells (293T) were preserved in our laboratory. At 37 °C under 5/95% CO2/air condition, all cell lines were cultured in Dulbecco’s modified Eagle medium (DMEM) supplemented with 10% (v/v) fetal bovine serum (FBS, Gibco, Carlsbad, CA, USA) and 1% (v/v) penicillin/streptomycin (Sangon Biotech, Shanghai, China).
(§2) Human tumor cell lines MCF7, A549, HeLa and LoVo were used as experimental materials to detect the anticancer activity of peptides by MTT assay. In addition, human embryonic kidney cells 293T were also included in the experiment to examine the safety of the peptide against non-cancerous cells. […] Untreated cells as negative control group incubated with corresponding medium for 24 h. Subsequently, 10 uL, 5 mg/mL MTT (Sangon Biotech, Shanghai, China) solution was added to each well and incubated for 4 h at 37 °C. After the medium was discarded, 150 μL DMSO was added to each well for 10 min to dissolve formazan crystals. Absorbance was measured at 570 and 630 nm using a multiwall plate reader and the inhibition rate was expressed as the mean ± standard deviation (SD) of the triplicate data.

[2] = system: colorectal adenocarcinoma cell line (LoVo); type: cell-based, human; details: MTT assay, 6000 cells per well, peptides 0.5-128 μM for 24 h, triplicate, absorbance 570 and 630 nm; read-out: IC50 (μM) LoVo
Excerpt: as §1, §2

[3] = system: cervical cancer cell line (HeLa); type: cell-based, human; details: MTT assay, 6000 cells per well, peptides 0.5-128 μM for 24 h, triplicate, absorbance 570 and 630 nm; read-out: IC50 (μM) HeLa
Excerpt: as §1, §2

[4] = system: Human breast cancer cell line (MCF7); type: cell-based; details: MTT assay, 6000 cells per well, peptides 0.5-128 μM for 24 h, triplicate, absorbance 570 and 630 nm; read-out: IC50 (μM) MCF7
Excerpt: as §1, §2

[5] = system: human embryonic kidney cells (293T); test: MTT assay on non-cancerous cells, 293T; type: cell-based
Excerpt: as §1, §2

[6] = system: 2% sheep red blood cells (SRBC); test: Hemolysis assay; type: cell-based
Protocol: The 2% sheep red blood cells (SRBC) were purchased from Nanjing Senbeijia Biological Technology Co., Ltd (Nangjing, China). A total of 4 mL of 2% SRBC was taken, rinsed twice with 4 mL of PBS by centrifugation for 5 min at 3000 rpm and the precipitates were resuspended in 4 mL of PBS. We added 100 μL of 2% SRBC to each well of the 96-well plate and then added 100 μL peptide solutions of different concentrations (2, 4, 8, 16, 32, 64, 128 and 256 μM) in triplicate at 37 °C for 1 h. 100 μL of PBS buffer and 100 uL of Triton X-100 0.1% (w/v) were mixed with SRBC as negative and positive controls, respectively. All samples were centrifuged at 3000 rpm for 5 min, 100 μL supernatant was collected and transferred to a new 96-well plate, and its absorbance was measured at 540 nm. The calculation formula of hemolysis rate is as follows. (5) % Hemolysis=absorbancesample-absorbancenegative/absorbancepositive-absorbancenegative×100

CC[C@H](C)[C@H](NC(=O)[C@H](CC(C)C)NC(=O)[C@H](CC(C)C)NC(=O)[C@H](CC(=O)O)NC(=O)[C@H](CCCCN)NC(=O)[C@@H](NC(=O)[C@H](C)NC(=O)CNC(=O)[C@H](CC(C)C)NC(=O)[C@@H](NC(=O)CN)C(C)C)C(C)C)C(=O)NCC(=O)N[C@@H](C)C(=O)NCC(=O)N[C@@H](CCCCN)C(=O)N[C@@H](CO)C(=O)N[C@@H](C)C(=O)N[C@@H](C)C(=O)N[C@@H](CCC(N)=O)C(=O)N[C@@H](CO)C(=O)N[C@H](C(=O)N[C@@H](CC(C)C)C(=O)N[C@@H](CCCCN)C(=O)N[C@H](C(=O)N[C@@H](CC(C)C)C(=O)N[C@@H](CO)C(=O)N[C@H]1CSSC[C@@H](C(=O)O)NC(=O)[C@H](CC(=O)O)NC(=O)[C@H](CC(N)=O)NC(=O)[C@H](CO)NC(=O)[C@H](CC(C)C)NC(=O)[C@H](CCCCN)NC1=O)[C@@H](C)O)C(C)C [Odorranain-C1] (H-GVLGAVKDLLIGAGKSAAQSVLKTLSCKLSNDC-OH; disulfide 27-33)
IC50 ([1]; MTT assay, 6000 cells per well, peptides 0.5-128 μM for 24 h, triplicate, absorbance 570 and 630 nm, read-out: IC50 (μM) A549): 27.3 µM
killing effects on lung cancer cell A549 (in words) ([1]; MTT, 24 h, anticancer activity when IC50 less than 50 μM): effective killing effects
IC50 [2]: 55.2 µM
IC50 [3]: 52.8 µM
IC50 [4]: 41.2 µM
toxicity to 293T cells (in words) ([5]; low toxicity when the IC50 value exceeded 50 μM, MTT, 24 h): certain toxicity
IC50 ([5]; non-cancerous cells, MTT assay, 6000 cells per well, peptides 0.5-128 μM for 24 h, triplicate, absorbance 570 and 630 nm, read-out: IC50 (μM) 293T): 48.7 µM
hemolysis (in words) ([6]; hemolytic rate of 100 μM peptides more than 10% as the classification standard, 2% sheep erythrocytes): no hemolysis
Hemolytic effect on 2% sheep erythrocytes, peptide concentration 2 μM ([6]; peptide 2 μM, 2% SRBC in PBS, 37 °C, 1 h, absorbance 540 nm, triplicate): − (The “−” symbol indicates the hemolysis rate of less than 10% at peptides concentration of 100 μM)
Hemolytic effect on 2% sheep erythrocytes, peptide concentration 4 μM ([6]; peptide 4 μM, 2% SRBC in PBS, 37 °C, 1 h, absorbance 540 nm, triplicate): − (The “−” symbol indicates the hemolysis rate of less than 10% at peptides concentration of 100 μM)
Hemolytic effect on 2% sheep erythrocytes, peptide concentration 8 μM ([6]; peptide 8 μM, 2% SRBC in PBS, 37 °C, 1 h, absorbance 540 nm, triplicate): − (The “−” symbol indicates the hemolysis rate of less than 10% at peptides concentration of 100 μM)
Hemolytic effect on 2% sheep erythrocytes, peptide concentration 16 μM ([6]; peptide 16 μM, 2% SRBC in PBS, 37 °C, 1 h, absorbance 540 nm, triplicate): − (The “−” symbol indicates the hemolysis rate of less than 10% at peptides concentration of 100 μM)
Hemolytic effect on 2% sheep erythrocytes, peptide concentration 32 μM ([6]; peptide 32 μM, 2% SRBC in PBS, 37 °C, 1 h, absorbance 540 nm, triplicate): − (The “−” symbol indicates the hemolysis rate of less than 10% at peptides concentration of 100 μM)
Hemolytic effect on 2% sheep erythrocytes, peptide concentration 64 μM ([6]; peptide 64 μM, 2% SRBC in PBS, 37 °C, 1 h, absorbance 540 nm, triplicate): − (The “−” symbol indicates the hemolysis rate of less than 10% at peptides concentration of 100 μM)
Hemolytic effect on 2% sheep erythrocytes, peptide concentration 128 μM ([6]; peptide 128 μM, 2% SRBC in PBS, 37 °C, 1 h, absorbance 540 nm, triplicate): − (The “−” symbol indicates the hemolysis rate of less than 10% at peptides concentration of 100 μM)
Hemolytic effect on 2% sheep erythrocytes, peptide concentration 256 μM ([6]; peptide 256 μM, 2% SRBC in PBS, 37 °C, 1 h, absorbance 540 nm, triplicate): − (The “−” symbol indicates the hemolysis rate of less than 10% at peptides concentration of 100 μM)
